Source: patent US10138207B2, “Benzomorphan analogs and the use thereof” (priority 2012, dated 2018)

Tests used:
κ opioid receptor = κ opioid receptor (Homo sapiens, UniProt P41145); assay: biochemical; assay type: binding; design: expressed in transfected cells; host or cells: HEK 293 (in-house membrane prep); conditions: HEK-293 or CHO cells
μ-opioid receptor = μ-opioid receptor (Homo sapiens, UniProt P35372); assay: μ-opioid receptor [35S]GTPγS functional assay, HEK-293 or CHO cells; conditions: for Emax: read-out: GTPγS μ Emax
μ-opioid receptor, sequence (P35372 whole entry, species assumed): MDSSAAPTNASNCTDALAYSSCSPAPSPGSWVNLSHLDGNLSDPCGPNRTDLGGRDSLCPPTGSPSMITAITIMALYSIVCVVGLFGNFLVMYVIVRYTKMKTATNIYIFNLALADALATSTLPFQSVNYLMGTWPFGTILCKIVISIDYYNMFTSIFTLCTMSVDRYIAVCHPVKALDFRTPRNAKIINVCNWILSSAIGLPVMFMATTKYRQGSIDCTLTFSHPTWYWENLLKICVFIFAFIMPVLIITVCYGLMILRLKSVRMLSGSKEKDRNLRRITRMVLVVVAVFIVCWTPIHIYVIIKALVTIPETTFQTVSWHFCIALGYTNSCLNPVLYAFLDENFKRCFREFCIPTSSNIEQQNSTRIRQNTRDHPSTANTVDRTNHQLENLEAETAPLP

κ opioid receptor, sequence (P41145 whole entry): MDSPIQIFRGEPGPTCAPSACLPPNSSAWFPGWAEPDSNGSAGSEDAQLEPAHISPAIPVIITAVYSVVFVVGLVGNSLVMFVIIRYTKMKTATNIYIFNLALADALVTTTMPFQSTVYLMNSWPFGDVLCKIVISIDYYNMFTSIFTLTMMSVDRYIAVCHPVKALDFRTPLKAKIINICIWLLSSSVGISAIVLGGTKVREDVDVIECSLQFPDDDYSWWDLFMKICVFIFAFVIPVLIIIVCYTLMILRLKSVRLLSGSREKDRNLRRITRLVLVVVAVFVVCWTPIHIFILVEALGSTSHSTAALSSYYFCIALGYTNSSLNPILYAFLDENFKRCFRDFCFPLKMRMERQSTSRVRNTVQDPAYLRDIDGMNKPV

Structure (SMILES)	Ki (κ opioid receptor) [µM]	EC50 (μ-opioid receptor) [µM]	Ki (κ opioid receptor; bound in μM) [µM]	Emax (μ-opioid receptor) [%]
COc1ccc2c(c1)[C@@]1(C)CCN(C)C(C2)[C@@H]1c1cccc(C(=O)O)c1 [Compound 38, 3-((6S,11R)-8-methoxy-3,6-dimethyl-1,2,3,4,5,6-hexahydro-2,6-methanobenzo[d]azocin-11-yl)benzoic acid]	17.4 ± 5.98	> 20		
COc1ccc2c(c1)[C@@]1(C)CCN(C)C(C2)[C@@H]1c1cccc(-c2nnn[nH]2)c1 [Compound 42, (6S,11R)-11-(3-(1H-tetrazol-5-yl)phenyl)-8-methoxy-3,6-dimethyl-1,2,3,4,5,6-hexahydro-2,6-methanobenzo[d]azocine]		> 20	> 20	
COc1ccc2c(c1)[C@@]1(C)CCN(C)C(C2)[C@]1(O)c1cccc(C(=O)O)c1 [Compound 71, 3-((6R,11S)-11-hydroxy-8-methoxy-3,6-dimethyl-1,2,3,4,5,6-hexahydro-2,6-methanobenzo[d]azocin-11-yl)benzoic acid]		13 ± 1.14	> 20	23 ± 4.58
COc1ccc2c(c1)[C@@]1(C)CCN(C)C(C2)[C@]1(O)c1cccc(C#N)c1 [Compound 37, 3-((6R,11S)-11-hydroxy-8-methoxy-3,6-dimethyl-1,2,3,4,5,6-hexahydro-2,6-methanobenzo[d]azocin-11-yl)benzonitrile]		> 20	> 20	
CN1CC[C@]2(C)c3cc(O)ccc3CC1C2N(C)C(=O)c1ccccc1C(=O)O (stereo in doubt) [Compound 49, 2-(((2R,6R,11S)-8-hydroxy-3,6-dimethyl-1,2,3,4,5,6-hexahydro-2,6-methanobenzo[d]azocin-11-yl)(methyl)carbamoyl)benzoic acid]		> 20	> 20	31.3 ± 5.36
CN1CC[C@]2(C)c3cc(O)ccc3C[C@@H]1[C@H]2COc1cncc(C(=O)O)c1 [Compound 33, 5-(((2R,6S,11S)-8-hydroxy-3,6-dimethyl-1,2,3,4,5,6-hexahydro-2,6-methanobenzo[d]azocin-11-yl)methoxy)nicotinic acid]	2.84 ± 0.342	2.45 ± 0.167		49 ± 3.67
CN1CC[C@]2(C)c3cc(O)ccc3CC1[C@@H]2CC(=O)Nc1ccccc1C(=O)O [Compound 35, 2-(2-((6S,11R)-8-hydroxy-3,6-dimethyl-1,2,3,4,5,6-hexahydro-2,6-methanobenzo[d]azocin-11-yl)acetamido)benzoic acid]		2.57 ± 0.783	> 20	23 ± 0.58
CN1CC[C@]2(C)c3cc(O)ccc3CC1C2N(C)C(=O)NCCC(=O)O (stereo in doubt) [Compound 68, 3-(3-((2R,6R,11S)-8-hydroxy-3,6-dimethyl-1,2,3,4,5,6-hexahydro-2,6-methanobenzo[d]azocin-11-yl)-3-methylureido)propanoic acid]	0.799 ± 0.0982	0.55 ± 0.0316		98 ± 1.73
COc1ccc2c(c1)[C@@]1(C)CCN(C)C(C2)[C@]1(O)c1cccc(-c2nnn[nH]2)c1 [Compound 66, (6R,11S)-11-(3-(1H-tetrazol-5-yl)phenyl)-8-methoxy-3,6-dimethyl-1,2,3,4,5,6-hexahydro-2,6-methanobenzo[d]azocin-11-ol]		6.61 ± 0.199	> 20	20.7 ± 1.33
CN1CC[C@]2(C)c3cc(O)ccc3C[C@@H]1[C@@H]2N(C)C(=O)c1cccc(C(=O)O)c1 [Compound 48, 3-(((2R,6R,11R)-8-hydroxy-3,6-dimethyl-1,2,3,4,5,6-hexahydro-2,6-methanobenzo[d]azocin-11-yl)(methyl)carbamoyl)benzoic acid]		5.19 ± 0.549	> 20	26 ± 4.16
COc1ccc2c(c1)[C@@]1(C)CCN(C)C(C2)[C@@]1(O)c1cccc(C(N)=O)c1 [Compound 67, 3-((6R,11R)-11-hydroxy-8-methoxy-3,6-dimethyl-1,2,3,4,5,6-hexahydro-2,6-methanobenzo[d]azocin-11-yl)benzamide]		> 20	> 20	
